Consider one substance from patent US20070191492A1, “Method for suppressing lung tumorigenesis” (Sumitomo Chemical Company, Limited, priority 2003, published 2007).

This assay relates to lung tumorigenesis. The assay is described as follows: multi-organ carcinogenesis model in rats: suppression of lung tumorigenesis (histopathological examination of lung). Format: in vivo, male F344 rat. Conditions: for Frequency of Animals having Tumors, Adenoma (animals with tumor / animals in group) / Frequency of Animals having Tumors, Adenoma (percent) / Frequency of Animals having Tumors, Carcinoma (animals with tumor / animals in group) / Frequency of Animals having Tumors, Carcinoma (percent) / Frequency of Animals having Tumors, Sum of Tumors (animals with tumor / animals in group) / Frequency of Animals having Tumors, Sum of Tumors (percent) / Tumor Multiplicity, Carcinoma (average number of tumors per individual ± standard deviation) / Tumor Multiplicity, Adenoma (average number of tumors per individual ± standard deviation) / Tumor Multiplicity, Sum of Tumors (average number of tumors per individual ± standard deviation): lung, 23 weeks. As to the method:
With respect to the compound 1 (13α, 14α-epoxy-3β-methoxyserratan-21β-ol) obtained in Example 1, activities for suppressing or inhibiting lung tumorigenesis were measured using a multi-organ carcinogenesis model in rats.
Diethylnitrosamine dissolved in saline was once administered interperitoneally to each male F344 rat at 6 weeks of age (Charles River Japan, Inc.) at a dose of 100 mg/kg body weight wherein this day was made to be day 1 of the testing. In succession, N-methyl-N-nitrosourea dissolved in saline was administered interperitoneally at a dose of 20 mg/kg body weight at day 4, 8, 11 and 15 of the testing (total four times of dosing). Furthermore, dimethylhydrazine dissolved in saline was administered subcutaneously at a dose of 40 mg/kg body weight at day 18, 22, 25, 29, 32 and 36 of the testing (total six times of dosing). In parallel with administration of these carcinogens, drinking water into which 0.05% N-butyl-N-(4-hydroxybutyl)nitrosamine was dissolved was allowed to ingest to the F344 rat from day 1 of the testing for the following four weeks. Thereafter, drinking water into which around 0.1% of 2, 2′-dihydroxy-di-n-propylnitrosamine was dissolved was allowed to ingest to the F344 rat for over two weeks from the beginning of week 5 to the end of week 6 of the testing. With respect to the F344 rat treated with a variety of carcinogens as described above, administration of the compound 1 was started from the beginning of week 8 of the testing. The compound 1 was dissolved into corn oil and forcibly administered orally into stomach using a sonde at a dose of 5 or 10 mg/kg body weight. The administration was implemented at a frequency of once a day, five days in a week, and continued for twenty three weeks. As a reference, untreated groups to which no compound 1 was administered were provided. After elapsed thirty weeks from starting the testing, each F344 rat had been sacrified to isolate a lung, and histopathological examination was conducted on the lung thus isolated. With respect to neoplastic lesions, they were classified into a benign or malignant lesion, and a number of animals each having a benign tumor or a malignant tumor and a number of tumors were counted in each group.

[1] abbreviates: 5 mg/kg orally once a day, five days a week, examined after 30 weeks.
Setting [2] is: treated group vs untreated group, in words.

Regarding “13α, 14α-epoxy-3β-methoxyserratan-21β-ol [Compound 1]”, under setting [1], the “Frequency of Animals having Tumors, Adenoma (animals with tumor / animals in group)” value was 11/20 and the “Frequency of Animals having Tumors, Adenoma (percent)” value stood at 55%. Besides, where the note is “5 mg/kg orally, P < 0.05”, the “Frequency of Animals having Tumors, Carcinoma (animals with tumor / animals in group)” value is 1/20; the “Frequency of Animals having Tumors, Carcinoma (percent)” value is recorded as 5%; the “Frequency of Animals having Tumors, Sum of Tumors (animals with tumor / animals in group)” value was 11/20; the Frequency of Animals having Tumors, Sum of Tumors (percent) was 55%. Further, the “Tumor Multiplicity, Carcinoma (average number of tumors per individual ± standard deviation)” value (5 mg/kg orally, P < 0.05) was found to be 0.05 ± 0.22. For the same substance, under “5 mg/kg orally, p < 0.01”, the “Tumor Multiplicity, Adenoma (average number of tumors per individual ± standard deviation)” value was 0.70 ± 0.80 and the “Tumor Multiplicity, Sum of Tumors (average number of tumors per individual ± standard deviation)” value is listed as 0.75 ± 0.85. Further, where the note is “10 mg/kg orally”, the “Frequency of Animals having Tumors, Adenoma (animals with tumor / animals in group)” value is on record as 12/19; the “Frequency of Animals having Tumors, Adenoma (percent)” value came out at 67%; the “Frequency of Animals having Tumors, Carcinoma (animals with tumor / animals in group)” value is 5/19; the “Frequency of Animals having Tumors, Carcinoma (percent)” value is recorded as 28%. Further, where the note is “10 mg/kg orally”, the “Frequency of Animals having Tumors, Sum of Tumors (animals with tumor / animals in group)” value is recorded as 13/19; the “Frequency of Animals having Tumors, Sum of Tumors (percent)” value turned out to be 72%; the “Tumor Multiplicity, Carcinoma (average number of tumors per individual ± standard deviation)” value came out at 0.29 ± 0.47. Where the note is “10 mg/kg orally, P < 0.05”, the “Tumor Multiplicity, Adenoma (average number of tumors per individual ± standard deviation)” value is on record as 1.00 ± 1.00 and the “Tumor Multiplicity, Sum of Tumors (average number of tumors per individual ± standard deviation)” value is 1.22 ± 1.06. Besides, under setting [2], the “frequency of animals each having tumor (adenoma or carcinoma) compared with the untreated group” value is recorded as “lower value” and the “tumor multiplicity (adenoma or carcinoma) compared with the untreated group” value is on record as “lower value”.
